Test results taken from patent publication US20250186319A1, “ANAPLEROTIC COMPOSITIONS AND USES THEREOF” (EXCELLA BIOSCIENTIFIC LTD, priority 2021, published 2025).
Converted amounts (≈) assume the structure as drawn. Like-named read-outs stand apart in the source and are kept apart here.

Tests used:
[1] = tested on: P. acnes; experiment: MIC/MBC against P. acnes by microdilution method; format: cell-based; settings: for MIC: Cutibacterium acnes; for MBC: TriAza batches and their soaps
Source text: TriAza was designed as a pro-drug of azelaic acid, a known antibacterial agent, for the treatment of skin disorders associated with pathogenic propagation of bacteria. For example, the development of Acne vulgaris is tightly associated with extensive accumulation of P. acnes in the sebaceous gland, a milieu of the disease. To determine the antibacterial activity of TriAza against P. acnes, we tested the minimal bactericidal concentration (MBC) of TriAza. The effect of TriAza was compared to the MBC of azelaic acid and benzoyl peroxide (BPO), two main competitors used in the treatment of acne.
To compare the antimicrobial activities of various batches of TriAza we determined MIC of number of batches that were prepared with non-principal modifications. Selected batches were labeled as TriAza −3, TriAza −6, TriAza −7 and TriAza −19 and supplied to the growth medium of P. acnes. A, minimal inhibitory concentration of the batches was monitored and compared to each other. […] For further analysis, batch TriAza −19 was chosen as a batch containing the minimal amount of pelargonic acid.
Since TriAza is designed for marketing as a soap, we decided to define an antibacterial activity of its soap. […] It should be stressed that despite the decreased activity of TriAza soap it is still higher than that of azelaic acid (Table 1 and 2).
Example 12: Microbiome balance effect: Selection of methods for QC-quality control-Functional Potency. Testing minimal inhibitory concentration (MIC) to P. acnes was executed by microdilution method. TriAza based biocontrol, microbial preservation. P. acnes after double passage on Chocolate plates (Novamed) were grown bacteria in anaerobic conditions at 37° C. for 1-2 days. The bacteria were Gram stained and the proper morphology of the bacteria was assured. Then, bacteria were resuspended in Thioglycolate medium (HyLabs) at concentration of 0.02 O.D.600. Meanwhile, ELISA plates containing at the first raw 200 μl of undiluted tested material were prepared. The rest wells were filled with 100 μl of Thioglycolate medium and 11 serial […] by transferring 100 μl of undiluted material was performed. Once the ELISA plate was ready, 100 μl of prepared bacterial culture was added. Bacteria alone and medium w/o bacteria were used as standard controls. The plates were incubated in anaerobic conditions at 37° C. for 2 days. Minimal inhibitory concentration was determined visually and spectrophotometrically, while minimal bactericidal concentration was determined after plating of the bacteria on solid medium (Chocolate plates). On the plates bacteria were incubated in anaerobic conditions at 37° C. for 2 days and the number of appearing colonies were counted manually. Specification for positive functional potency for batch acceptance for the TriAza batches tested are selected in range of antimicrobial activity-MIC between 0,25-1 mM.
P. acnes after double passage on Chocolate plates (Novamed) were grown in anaerobic conditions at 37° C. for 1-2 days. The bacteria were Gram stained and the proper morphology of the bacteria was assured. Then, bacteria were resuspend in Thioglycolate medium
(HyLabs) at concentration of 0.02 O.D.600. Meanwhile, ELISA plates containing at the first raw undiluted tested material were prepared. The rest wells were filled with 100 μl of Thioglycolate medium and 11 serial ½ dilutions by transferring 100 ul of undiluted material was performed. Once the ELISA plate was ready, 100 ul of prepared bacterial culture was added. Bacteria alone and medium w/o bacteria were used as standard controls. The plates were incubated in anaerobic conditions at 37° C. for 2 days. Minimal inhibitory concentration was determined visually and spectrophotometrically, while minimal bactericidal concentration was determined after plating of the bacteria on solid medium (Chocolate plates). […]

[2] = tested on: phospholipase A2; experiment: Specificity: hydrolysis of TriAza by phospholipase A2; format: biochemical; settings: equally active enzyme amounts, fixed TriAza concentration
Source text: (§1) Pure pro-drug activity of designed molecules implies their high specificity towards the target enzyme. TriAza represents the glycerol ester of a specific fatty acid that might be recognized by a mammalian esterase or other triglyceride-utilizing lipase. To establish specificity of bacterial lipase to TriAza, the lipase activity from P. cepacia to that of mammalian esterase and phospholipase A2 were compared. […] The extents of enzyme activities were registered according to the level of generation of azelaic acid.

[3] = target: T1, lipase from P. cepacia (Burkholderia cepacia, UniProt P22088); experiment: Bacterial lipase hydrolysis of TriAza, azelaic acid production by TLC; format: biochemical; settings: increasing enzyme amounts, 37° C.
T1 construct: purchased
Method: To determine the affinity of a bacterial lipase to the active ingredient according to the embodiments of the invention, the ability of the lipase to utilize TriAza as a substrate was tested. For this purpose, the commercially available lipase from P. cepacian was used. Increasing amounts of the enzyme were mixed with a fixed concentration of the substrate, and incubated for a few hours at 37° C. The enzymatic activity was monitored by TLC, by registering the production of azelaic acid.
as §1

[4] = tested on: P. acnes-associated lipase; experiment: P. acnes-associated lipase activity in live culture, release of azelaic acid (TLC); format: cell-based; settings: day 1 and day 5
Method: The activity of C. acnes-associated and P. acnes-associated lipase was tested in the presence of triolein (a trigger of lipase activity). Bacteria was grown for 4 days in liquid medium. P. acnes after double passage on Chocolate plates (Novamed) were grown bacteria in anaerobic conditions at 37° C. for 1-2 days. The bacteria were Gram stained, and the proper morphology of the bacteria was assured. Then, 1 O.D. 600 bacteria were resuspended in 1 ml of Thioglycolate medium (HyLabs) containing 50 μl triolein and grown in anaerobic conditions at 37° C. for 4 days. Following this incubation, 100 μl of emulsified substrate was added to the culture that was further maintained at 37° C. for overnight. Afterwards, the supernatant was separated from the bacteria by 1 min centrifugation at 10000 rpm and subjected to lipid extraction using clorophorm: methanol (2:1). The lipids after nitrogen evaporation and resuspension in clorophorm: methanol (2:1) were separated on silica TLC plates in a development solution of clorophorm: methanol: water (65:25:4), and visualized with BromCresol Green (Sigma).

[5] = Subjective evaluation of skin aged appearance in volunteers; format: in vivo, human; settings: scale −3 to 3; three volunteers; after month of use
Method: Method of subjective qualitative evaluation of skin whitening and smoothening at the test site and improvement in fine lines is evaluated subjectively by the investigator and/or by the subjects in accordance with the following scoring pattern:−3=marked deterioration;−2=moderate, visibly uneven deterioration;−1=slight deterioration; 0=no perceptible change or improvement; 1=slight change or improvement; 2=moderate change or improvement (whitening; perceptible and visible change, with less than 50% lightening of skin color); 3=marked or improvement remarkable change or improvement (whitening; very visible change with even and uniform skin whitening covering more than 80% of the contact area). Three study volunteers used TriAza for reduction of skin “aged appearance”-all three after month of use reported 2-3 scale of appearance improvement.

[6] = tested on: mammalian esterase; experiment: Specificity: hydrolysis of TriAza by esterase; format: biochemical; settings: equally active enzyme amounts, fixed TriAza concentration
Source text: as §1

[7] = tested on: Staphylococcus aureus (S. aureus); experiment: MIC/MBC against S. aureus; format: cell-based
Source text: (§2) For this purpose, we selected a few major skin pathogens and tested their sensitivity to TriAza. We chose Staphylococcus aureus (S. aureus) and Candida albicans (C. albicans), representing bacterial and fungal genera, respectively. Both organisms' express lipase. The bacteria and fungi were exposed to various concentrations of TriAza −19 and its sodium salt, and both the MICs and MBCs of the agents were statistically determined. […] The slight difference in MICs of TriAza against the tested organisms can stem from the difference in their lipase activity.

[8] = tested on: Candida albicans (C. albicans); experiment: MIC/MBC against C. albicans; format: cell-based
Source text: as §2

[9] = tested on: S. aureus; experiment: S. aureus spiked contamination screen of natural preservatives in chocolate spread; format: cell-based; design: unit not given here
Source text: In addition, even MCT, and derivatives are screened as useful natural preservatives of the composition, GML-glycerol monolaurate is selected as an adjunctive multifunctional natural preservative to MOCL based composition.

[10] = TriAza value is batch #5, MIC of L-PABS equals its MBC, read-out: MIC

T1 sequence (P22088 45-364): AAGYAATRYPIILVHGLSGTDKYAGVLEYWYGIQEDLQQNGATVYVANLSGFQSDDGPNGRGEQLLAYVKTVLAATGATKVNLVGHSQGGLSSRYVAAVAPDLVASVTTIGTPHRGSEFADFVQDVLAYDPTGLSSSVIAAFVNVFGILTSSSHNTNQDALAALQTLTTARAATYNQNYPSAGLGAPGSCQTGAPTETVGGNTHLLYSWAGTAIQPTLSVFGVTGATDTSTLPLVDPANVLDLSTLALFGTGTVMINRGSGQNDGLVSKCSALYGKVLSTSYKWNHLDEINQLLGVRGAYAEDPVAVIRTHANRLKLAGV

Work on `O=C(O)CCCCCCCC(=O)O` [Azelaic acid, reference compound] yielded an MIC [1, 10] of 3750 µg/mL.

`O=C(OOC(=O)c1ccccc1)c1ccccc1` [BPO, benzoyl peroxide, reference compound] gave an MIC [1, 10] of 500 µg/mL.

For `O=C(O)CCCCCCCC(=O)OCC(COC(=O)CCCCCCCC(=O)O)OC(=O)CCCCCCCC(=O)O` [TriAza, Glycerol triazelate], the “generation of azelaic acid by phospholipase A2” value [2] was “neither esterase nor phospholipase A2 could produce azelaic acid”, the “utilization as substrate, accumulation of azelaic acid” value [3] was “could be utilized as a substrate for bacterial lipase activity” and the “time-dependent release of azelaic acid” value [4] was “maximum lipase hydrolysis on day 5”. The appearance improvement score [5] was 2-3, the “generation of azelaic acid by esterase” value [6] was “neither esterase nor phospholipase A2 could produce azelaic acid” and the MIC [1, 10] was 1950 µg/mL. The MIC ([1]; batch VA4-1, with surfactant or emulsifier, read-out: MIC bacteriostatic activity, concentration sufficient to stop growth) was 1000 µM and the “activity of TriAza relative to Azelaic acid” value ([1]; stronger than Azelaic acid) was 2 fold.

For `O=C(O)CCCCCCCC(=O)OCC(COC(=O)CCCCCCCC(=O)O)OC(=O)CCCCCCCC(=O)O` [TriAza-3], the MBC [1] was 1000 µg/mL (≈ 1.66 mM).

In the case of `O=C(O)CCCCCCCC(=O)OCC(COC(=O)CCCCCCCC(=O)O)OC(=O)CCCCCCCC(=O)O` [TriAza-6], the MBC [1] is reported as 2800 µg/mL (≈ 4.65 mM).

Molecule `O=C(O)CCCCCCCC(=O)OCC(COC(=O)CCCCCCCC(=O)O)OC(=O)CCCCCCCC(=O)O` [TriAza-7] has an MBC [1] of 2000 µg/mL (≈ 3.32 mM).

With `O=C(O)CCCCCCCC(=O)OCC(COC(=O)CCCCCCCC(=O)O)OC(=O)CCCCCCCC(=O)O` [TriAza-19] the MBC [7] was 10000 µg/mL (≈ 16.6 mM), the MIC [7] was 5000 µg/mL (≈ 8.3 mM) and the MBC [1] was 1000 µg/mL (≈ 1.66 mM). It also gave an MBC [8] of 24000 µg/mL (≈ 39.8 mM) and an MIC [8] of 20000 µg/mL (≈ 33.2 mM).

`CCCCCCCCC(=O)OCC(COC(=O)CCCCCCCC)OC(=O)CCCCCCCC` [tripelargonin] gave an MIC [9] of 23.
